Source: patent US20220354957A1, “PEPTIDES TARGETING MACROPHAGES, AND CONJUGATES, COMPOSITIONS, AND USES THEREOF” (Twinpig Biolab, Inc., priority 2021, published 2022)

Assays:
TRAMP-C2 cells = test: Mouse model of prostate cancer (subcutaneous TRAMP-C2); type: in vivo
Source text: (§1) BALB/c and C57BL/6 (B6) wild-type mice were purchased from DBL. For the subcutaneous tumor model of melanoma and prostate cancer, CT26 (3×10^5 cells/mouse), B16F10 (1×10^6 cells/mouse) and TRAMP-C2 cells (1×10^6 cells/mouse) were mixed with Matrigel matrix (Corning) and inoculated subcutaneously into the right flank of the mice, and 4T1 (1×10^5 cells/mouse) cells mixed with Matrigel matrix and inoculated into a 4th mammary fat pad of the mice. TAMpepK, and MpepK peptides (200 nmol/kg) were injected intraperitoneally every 3 days, beginning at day 7 after tumor inoculation, and tumor volume was measured by electronic caliper. All tumor tissues were harvested after the end of the study and tumor weight was measured by an electronic balance.
Cells were harvested and lysed in PRO-PREP protein extraction solution (iNtRON, Bio Inc, Sungnam, Korea). Protein concentrations were measured with a Bradford Protein Assay Reagent kit (Bio-Rad, Richmond, CA, USA). Proteins were fractionated by 10% SDS-polyacrylamide gels electrophoresis (PAGE), and transferred onto polyvinylidene difluoride (PVDF) membranes. These were incubated with anti-arginase 1, anti-CD206, anti-caspase 3, anti-E-cadherin, anti-fibronectin, anti-PCNA, anti-TGF-β, anti-MMP9, and anti-β-actin Ab as primary antibodies. Goat anti-rabbit horseradish peroxidase-conjugated IgG or goat anti-mouse horseradish peroxidase-conjugated IgG (Abcam, Cambridge, Mass., USA) served as secondary antibodies. Protein bands were detected with a chemiluminescence reagent kit (SurModics).

Hepa1-6 cells = test: Mouse model of hepatocellular carcinoma (subcutaneous Hepa1-6); type: in vivo
Description: C57BL/6 (B6) wild-type mice purchased from DBL. For the subcutaneous tumor model of hepatocellular carcinoma, Hepa1-6 cells were mixed with Matrigel matrix (Corning) and inoculated subcutaneously into the right flank (4×10^5 cells/mouse) of the mice. MpepK peptide (100, 200 and 400 nmol/kg) were injected intraperitoneally every 3 days, beginning at day 12 after tumor inoculation and tumor volume was measured by electronic caliper. All animals were maintained in a specific pathogen-free environment on a 12-h light/dark cycle with free access to food and water. After the experiments were terminated, all mice were euthanized using isoflurane and cervical dislocation.

M2 macrophages = test: Apoptosis and caspase-3 expression in THP-1-derived macrophages; type: cell-based, human
Description: THP-1 cells were differentiated into macrophages by 24 h incubation with 100 nM PMA and polarized in M2 macrophages by incubation with 20 ng/ml of IL-4 and 20 ng/ml of IL-13 for 72 h. Polarized cells were treated with increasing concentrations of TAMpep and fragments of TAMpep (0.05-20 μM) for 24 h. Cell viability was analyzed using the CCK-8 assay: CCK-8 reagent (Enzo Life Sciences) was added to each well; incubation was continued for 2 hours, and absorbance was measured at 450 nm with a microplate reader (Molecular Devices).
THP-1 cells were seeded on cover glasses in 24-well plates and differentiated into M0, M1 and M2 macrophages. Cells were treated with 1 μM TAMpepK and MpepK for 1 h and incubated for 24 h after remove of peptides. Cells were washed, fixed with 4% paraformaldehyde for 10 minutes at […] and blocked with 0.1% normal goat serum for 1 hour. The cover glasses were then incubated with anti-caspase-3 antibody (1:50, rabbit polyclonal, Abcam) overnight at 4° C., and then washed and stained with Alexa 594-labelled goat anti-rabbit lgG (1:500, Invitrogen) at 37° C. for 1 hr. The cover glasses were mounted in Vectashield mounting medium (Vector Laboratories) with DAPI to visualize nuclei. Images photographed by fluorescence microscope (Leica).

PC3 cells = test: Proliferation and migration of prostate cancer cells by conditioned medium of macrophages; type: cell-based, human; settings: conditioned media of M2 macrophages and M2-like TAMs pretreated with peptide
Description: To obtain conditioned media of tumor (TCM), PC3 cells were seeded at 2×10^5 cells/well in culture medium in 24-well plates (Corning Inc). After 24 hours, the medium was changed to serum-free RPMI1640 medium and the cells were incubated for 24 hours. For conditioned media of macrophages, THP-1 cells were seeded at 2×10^5 cells/well in culture medium in 24-well plates (Corning Inc) and incubated with 100 nM PMA for 24 h. Cells were polarized into M0, M1, and M2 macrophages or TAM macrophages by TCM and changed to serum-free RPMI1640 medium. After 24 hours, the medium was changed to serum-free RPMI1640 medium and the cells were incubated for 24 hours. Supernatants were harvested and clarified with syringe filters (0.2 μm, Milipore). Supernatants of PC3 cells were named tumor-conditioned medium (TCM).
Migration of prostate cancer and melanoma cells was assessed with wound healing assays. PC3 and Sk-Mel-28 cells were seeded at 2×10^5 cells/well in 24-well plates and cultured in RPMI1640 with 10% FBS. When the cells reached confluence, they were wounded by scraping across the surface of the well with a sterile micropipette tip. […] Wound areas were measured with ImageJ software (NCI, Bethesda, Md., USA). The percent of each wounded area filled by cell migration was calculated as: (mean wounded breadth—mean remaining breadth)/mean wounded breadth×100.

M2-like TAMs = test: FACS of tumor macrophages and CD8+ T cells in mouse model of melanoma; type: in vivo; settings: vs PBS group
Source text: as §1
THP-1 cells were differentiated into macrophages by a 24 h incubation with 100 nM PMA and polarized in M2 macrophages by incubation with 20 ng/ml of IL-4 and 20 ng/ml of IL-13 for 72 h. Polarized cells were treated with 50 nM TAMpep and fragments of TAMpep or Mpep and alanine library of Mpep conjugated with FITC for 1 h. To test change of macrophage population in melanoma tissue, the single cells were isolated from tumor tissue through a 40 μm nylon mesh strainer after dissociation by DNase I (1 U/mL) and collagenase D (1 mg/ml). Cells were detected on BD FACSCalibur and BD FACSCantoII instruments and analyzed by FlowJo software.

[1] = TRAMP-C2 in C57BL6J mice, i.p. every 3 days, vs PBS group

CC[C@H](C)[C@H](NC(=O)[C@H](CC(C)C)NC(=O)[C@H](C)NC(=O)[C@@H]1CCCN1C(=O)[C@H](CC(C)C)NC(=O)CNC(=O)[C@@H](NC(=O)[C@@H](NC(=O)[C@H](CC(C)C)NC(=O)[C@@H](NC(C)=O)C(C)C)[C@@H](C)O)[C@@H](C)O)C(=O)N[C@@H](CO)C(=O)N[C@@H](Cc1c[nH]c2ccccc12)C(=O)N[C@H](C(=O)N[C@@H](CCCCN)C(=O)N[C@@H](CCCNC(=N)N)C(=O)N[C@@H](CCCCN)C(=O)N[C@@H](CCCNC(=N)N)C(=O)N[C@@H](CCC(N)=O)C(=O)N[C@@H](CCC(N)=O)C(=O)NCC(=O)NCC(=O)NCC(=O)NCC(=O)N[C@@H](CO)C(=O)N[C@H](CCCCN)C(=O)N[C@H](CC(C)C)C(=O)N[C@H](C)C(=O)N[C@H](CCCCN)C(=O)N[C@H](CC(C)C)C(=O)N[C@H](C)C(=O)N[C@H](CCCCN)C(=O)N[C@H](CCCCN)C(=O)N[C@H](CC(C)C)C(=O)N[C@H](C)C(=O)N[C@H](CCCCN)C(=O)N[C@H](CC(C)C)C(=O)N[C@H](C)C(=O)N[C@H](CCCCN)C(=O)O)[C@@H](C)CC [MpepK]
tumor volume (TRAMP-C2 cells; [1]): significantly reduced
tumor weight (TRAMP-C2 cells; [1]): significantly reduced
body weight of mice (TRAMP-C2 cells; TRAMP-C2 prostate cancer model): did not significantly change
E-cadherin (epithelial cell marker) in tumor tissues (TRAMP-C2 cells; prostate cancer model): increased
expression of PCNA (proliferative marker) in tumor tissues (TRAMP-C2 cells; prostate cancer model): reduced
expression of TGF-β and MMP9 in tumor tissues (TRAMP-C2 cells; prostate cancer model): reduced
vimentin and fibronectin (mesenchymal marker) in tumor tissues (TRAMP-C2 cells; prostate cancer model): reduced
body weight change (Hepa1-6 cells; Hepa1-6 model, 100, 200 and 400 nmol/kg i.p. every 3 days): no significant difference
survival rate (Hepa1-6 cells; Hepa1-6 model, 100, 200 and 400 nmol/kg, vs PBS group): significantly extended
tumor volume (Hepa1-6 cells; Hepa1-6 model, all doses (100, 200 and 400 nmol/kg) i.p. every 3 days, vs PBS group): significantly reduced
expression of caspase-3 in M2 macrophages compared to other subtype macrophages (M2 macrophages; 1 μM, 1 h, then 24 h): increased
apoptosis in M2 macrophages compared to M0 and M1 macrophages (M2 macrophages; 0.01-10 μM): induced apoptosis
proliferation of PC3 cells (PC3 cells): significantly reduced
migration of PC3 cells (PC3 cells; wound healing): significantly reduced
exhaustion markers, such as PD-1 and LAGS, in CD8+ T cells (M2-like TAMs; melanoma model): significantly reduced
M1-like TAMs (F4/80+ and CD86+ cells) (M2-like TAMs; melanoma tumor tissue): no change
M1/M2 ratio (M2-like TAMs; melanoma tumor tissue): significantly increased
M2-like TAMs (F4.80+ and CD206+ cells) (M2-like TAMs; melanoma tumor tissue): reduced
